The record followed here is ChEMBL document CHEMBL5346900, “Treatment of allergy: Overview of synthetic anti-allergy small molecules in medicinal chemistry” (Eur J Med Chem, 2023).

Broadly, the IC50 is the concentration at which inhibition is half-maximal. Lower therefore signals greater potency in that assay. Broadly, the half-life is how long it takes for the measured level to halve. As usually defined, the Ki is a dissociation constant, usually derived from enzyme kinetics or from competition with a known ligand.

Chain of Histamine H4 receptor (Q9H3N8 whole entry): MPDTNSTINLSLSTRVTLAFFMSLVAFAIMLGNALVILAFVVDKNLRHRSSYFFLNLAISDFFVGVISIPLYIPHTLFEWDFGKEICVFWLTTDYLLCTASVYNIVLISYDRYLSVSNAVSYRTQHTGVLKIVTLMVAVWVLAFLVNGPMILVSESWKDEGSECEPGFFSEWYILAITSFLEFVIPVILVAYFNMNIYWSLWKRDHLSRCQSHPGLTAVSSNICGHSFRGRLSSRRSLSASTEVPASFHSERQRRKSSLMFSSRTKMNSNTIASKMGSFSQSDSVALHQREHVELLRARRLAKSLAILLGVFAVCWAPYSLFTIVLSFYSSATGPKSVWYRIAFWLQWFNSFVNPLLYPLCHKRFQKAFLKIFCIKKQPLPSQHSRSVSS

For one data set, the target named is T1, Leukotriene C4 synthase (Homo sapiens, UniProt Q16873).
T1 sequence (Q16873 whole entry): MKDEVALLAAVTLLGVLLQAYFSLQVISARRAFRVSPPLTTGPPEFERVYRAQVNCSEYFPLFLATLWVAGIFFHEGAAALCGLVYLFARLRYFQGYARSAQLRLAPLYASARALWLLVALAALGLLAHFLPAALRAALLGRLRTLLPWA
Briefly: Inhibition of LTC4 (unknown origin).
Conditions: not given
In turn, `Oc1ccc(CCNC(=S)Nc2ccc(Br)cn2)cc1` displayed an IC50 of 5000 nM.

For the compound `S=C(NCCc1c[nH]c2ccccc12)Nc1ccc(Cl)cn1`, it took 5000 nM to reach half-maximal inhibition (IC50).

`Cc1cccc(NC(=S)NC(C)c2cccc3ccccc23)n1` (configuration not stated) showed an IC50 of 1600 nM.

For the compound `CCOC(=O)Cc1csc(NC(=S)NC(C)c2cccc3ccccc23)n1` (configuration not stated), the IC50 came to 2 nM.

Take `Cc1ccc(NC(=S)NC(C)c2cccc3ccccc23)nc1` (configuration not stated): the 50% inhibitory concentration (IC50) was 5 nM.

Tested on in the next data set: not listed separately
Briefly: Half life in Sprague-Dawley rat at 3 mg/kg, iv measured by LC/MS analysis. The data set is classed as ADME, organism-based. Particulars: in vivo.
Compound `CN1CCN(C(=O)c2cc3cc(Cl)ccc3[nH]2)CC1` [JNJ-7777120] had a half-life of 48 min.

The target in a further data set is T2, Cysteinyl leukotriene receptor 1 (Cavia porcellus, UniProt Q2NNR5).
T2 sequence (Q2NNR5 whole entry): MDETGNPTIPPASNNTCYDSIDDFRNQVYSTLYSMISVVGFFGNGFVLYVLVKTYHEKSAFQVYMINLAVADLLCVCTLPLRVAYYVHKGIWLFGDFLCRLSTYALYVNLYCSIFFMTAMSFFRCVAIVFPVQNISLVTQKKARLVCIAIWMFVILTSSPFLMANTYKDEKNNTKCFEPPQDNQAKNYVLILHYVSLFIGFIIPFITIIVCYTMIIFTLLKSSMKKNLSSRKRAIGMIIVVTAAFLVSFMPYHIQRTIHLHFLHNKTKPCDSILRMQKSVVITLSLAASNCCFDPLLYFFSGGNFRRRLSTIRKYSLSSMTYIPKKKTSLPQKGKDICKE
The data set is described as follows: Inhibition of guinea pig leukotriene D4.
Conditions: not given
As to `Cn1nccc1-c1ccc(Sc2ccc(C3(C(N)=O)CCOCC3)cc2)cc1`, the IC50 worked out at 229 nM.

Take `COC1(c2cc(F)cc(OCc3ccc4c(ccc(=O)n4C)c3)c2)CCOCC1` [ZD-2138]: the IC50 is 300 nM.

A further data set has as its target Histamine H4 receptor (Homo sapiens, UniProt Q9H3N8). The data set is described as follows: Binding affinity to histamine H4 receptor (unknown origin) assessed as inhibition constant.
Conditions: not given
For the compound `O=C(c1cc2ccccc2[nH]1)N1CCNCC1`, the Ki turned out to be 4.9 nM.

For the compound `CN1CCN(C(=O)c2nc3cc(Cl)ccc3[nH]2)CC1`, the Ki was 27 nM.

Regarding `CN1CCN(c2cc(-c3ccc(Cl)cc3)nc(N)n2)CC1`, the Ki was 4.8 nM.

In the case of `Cc1cc(C)c2nc(-c3cnc(NCCCC4CCN(C)CC4)nc3C)[nH]c2c1` [TOREFORANT], the Ki is 8.4 nM.
